Results from patent US5817652A, “Hypolipidaemic condensed 1,4-thiazepines” (Glaxo Wellcome Inc., priority 1993, dated 1998).
Where a name gives a salt, the structure may show the parent alone.

Tested on: rat distal ileal brush border membrane vesicles
Test: In vitro inhibition of bile acid uptake (sodium-dependent 3H taurocholate uptake)
Format: biochemical
Details: active (sodium-dependent) 3H taurocholate uptake, 30 seconds at 24° C., pH 7.4
Procedure: In vitro inhibition of bile acid uptake
Freshly prepared rat distal ileal brush border membrane vesicles (about […] vesicle protein) were incubated for 30 seconds at 24° C. in an incubation mixture comprising […] ^3 H taurocholate, 100 mM NaCl (or KCl) and 80 mM mannitol in 20 mM Herpes Tris pH 7.4. Each test compound was dissolved in ethanol (or water) and then diluted with incubation mixture to an ethanol concentration of not more than 1% v/v. The incubation was terminated by rapid dilution and filtration and the filter washed with an ice-cold isotonic sodium-free buffer.
The uptake of ^3 H taurocholate was measured by the radioactivity remaining on the filter and converted to pmoles/mg vesicle protein. The active, ie sodium-dependent, uptake was obtained by subtracting the passive uptake measured in 100 mM KCl from the total uptake measured in 100 mM NaCl. The active uptake for each test compound was compared with a control active uptake and the results expressed as % inhibition of bile acid uptake.

Row | Compound | % inhibition of bile acid uptake (0.3 μM compound) [%] | % inhibition of bile acid uptake (1 μM compound) [%] | % inhibition of bile acid uptake (3 μM compound) [%] | % inhibition of bile acid uptake (10 μM compound) [%]
1 | CCC(=O)CC1(CC)CS(=O)(=O)c2ccccc2C(c2ccccc2)N1 (mixture of isomers) [Example 4, (±)-trans-1-(3-ethyl-2,3,4,5-tetrahydro-5-phenyl-1,4-benzothiazepin-3-yl)-2-butanone S,S-dioxide] | 28 | 54 | 77 | 90
2 | CCC1(/C=C/C(C)=O)CS(=O)(=O)c2ccccc2C(c2ccccc2)N1 (mixture of isomers) [Example 10, (±)-trans-(E)-4-(3-ethyl-2,3,4,5-tetrahydro-5-phenyl-1,4-benzothiazepin-3-yl)-3-buten-2-one 1,1-dioxide] |  |  |  | 69
3 | CCOCCC1(CC)CS(=O)(=O)c2ccccc2C(c2ccccc2)N1 (racemic) [Example 7, (±)-trans-3-(ethoxyethyl)-3-ethyl-2,3,4,5-tetrahydro-5-phenyl-1,4-benzothiazepine 1,1-dioxide hydrochloride hemihydrate] |  |  |  | 53
4 | COc1ccc2c(c1)S(=O)(=O)CC1(CCCCC1)NC2c1ccccc1 (racemic) [Example 11, (±)-2,3,4,5-tetrahydro-8-methoxy-5-phenylspiro(1,4-benzothiazepine-3,1-cyclohexane) 1,1-dioxide] | 15 | 33 | 36 | 64
5 | CCC(=O)CC1(CC)CS(=O)(=O)c2cc(OC)ccc2C(c2ccccc2)N1 (mixture of isomers) [Example 5, (±)-trans-1-(3-ethyl-2,3,4,5-tetrahydro-8-methoxy-5-phenyl-1,4-benzothiazepin-3-yl)-2-butanone S,S-dioxide hydrochloride 1,1 hydrate] | 60 | 83 | 94 | 98
6 | O=S1(=O)CC2(CCCCC2)NC(c2ccccc2)c2ccccc21 (racemic) [Example 20, (±)-2,3,4,5-Tetrahydro-5-phenylspiro(1,4-benzothiazepine-3,1'-cyclohexane) 1,1-dioxide] |  |  |  | 27
7 | CCC(=O)CC1(CC)CS(=O)(=O)c2ccc(OC)cc2C(c2ccccc2)N1 (mixture of isomers) [Example 51, (±)-Trans-1-(3-Ethyl-2,3,4,5-tetrahydro-7-methoxy-5-phenyl-1,4-benzothiazepin-3-yl)-2-butanone S,S-dioxide hydrochloride] | 66 | 91 | 100 | 100
